Source: US4260682A, “High sensitivity assays for angiotensin converting enzyme” (priority 1979, dated 1981)
Peptide text beside a SMILES is read from it. * marks the point of attachment. Bz = O=C(c1ccccc1)*

Tests used:
[1] = biological target: T1, Guinea pig urinary ACE (Cavia porcellus, UniProt H0UWL7); assay: Sulfate and chloride effects on ACE catalysed substrate hydrolysis; type: biochemical; conditions: 0.05M Hepes
T1 sequence (H0UWL7 33-1302): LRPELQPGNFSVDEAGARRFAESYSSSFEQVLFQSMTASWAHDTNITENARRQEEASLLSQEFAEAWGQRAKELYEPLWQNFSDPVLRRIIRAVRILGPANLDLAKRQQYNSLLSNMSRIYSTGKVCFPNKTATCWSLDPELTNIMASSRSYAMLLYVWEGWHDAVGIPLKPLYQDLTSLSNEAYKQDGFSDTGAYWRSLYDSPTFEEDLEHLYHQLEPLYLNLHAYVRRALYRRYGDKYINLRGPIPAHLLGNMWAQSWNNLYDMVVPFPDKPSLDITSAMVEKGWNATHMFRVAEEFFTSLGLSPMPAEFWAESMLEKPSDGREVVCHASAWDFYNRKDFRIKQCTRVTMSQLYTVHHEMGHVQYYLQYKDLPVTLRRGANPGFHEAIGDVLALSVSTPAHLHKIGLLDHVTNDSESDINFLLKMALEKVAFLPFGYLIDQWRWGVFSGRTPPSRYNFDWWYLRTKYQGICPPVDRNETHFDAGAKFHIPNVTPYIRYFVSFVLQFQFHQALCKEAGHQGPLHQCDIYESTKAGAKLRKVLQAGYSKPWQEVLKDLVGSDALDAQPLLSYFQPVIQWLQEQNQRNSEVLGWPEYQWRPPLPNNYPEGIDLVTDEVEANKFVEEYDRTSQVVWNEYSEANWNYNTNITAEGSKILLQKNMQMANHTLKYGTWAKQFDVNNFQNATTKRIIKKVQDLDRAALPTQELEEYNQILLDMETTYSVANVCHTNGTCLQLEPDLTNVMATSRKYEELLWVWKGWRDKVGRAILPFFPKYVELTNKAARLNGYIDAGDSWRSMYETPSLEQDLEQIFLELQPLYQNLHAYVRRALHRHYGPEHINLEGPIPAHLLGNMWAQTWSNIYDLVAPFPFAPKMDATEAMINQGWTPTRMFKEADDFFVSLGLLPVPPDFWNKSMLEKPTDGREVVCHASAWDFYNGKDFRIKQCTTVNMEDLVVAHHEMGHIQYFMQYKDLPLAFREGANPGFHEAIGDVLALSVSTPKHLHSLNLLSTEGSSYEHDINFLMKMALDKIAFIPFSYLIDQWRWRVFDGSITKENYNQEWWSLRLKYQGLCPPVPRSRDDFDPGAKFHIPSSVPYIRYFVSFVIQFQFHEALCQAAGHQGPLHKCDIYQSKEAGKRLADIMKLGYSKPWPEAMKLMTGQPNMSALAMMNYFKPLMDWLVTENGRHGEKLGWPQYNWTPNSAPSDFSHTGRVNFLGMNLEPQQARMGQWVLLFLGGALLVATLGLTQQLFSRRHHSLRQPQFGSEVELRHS

[2] = tested on: ACE; assay: pH dependence of ACE activity; type: biochemical
Text: (§1) The enzyme is active over a broad pH range with a maximum around pH 8.0, but is at least about 50% active in the range pH 7.0-pH 8.8, for both HipHisLeu and benzoylPheAlaPro. Although the enzyme is active in a variety of buffer systems known in the art, it is preferred for convenience, when using benzoylPheAlaPro as substrate, to conduct the assays in 0.05 M Hepes buffer, pH 8.0 containing 0.15 M sodium chloride. Detailed protocols for carrying out the assay are given in the examples. […] The preferred concentration range is 1×10^-9 M to 7×10^- 5 M.

[3] = tested on: ACE; assay: Sulfate and chloride effects on ACE catalysed hydrolysis (general description); type: biochemical; conditions: sulfate present
Text: An assay for ACE, using HipHisLeu as substrate, is herewith described. The assay is more sensitive than any heretofore disclosed using HipHisLeu as substrate. Maximum sensitivity is achieved by the inclusion of sulfate ions, preferably as sodium sulfate, in the reaction mixture. When 0.1 M NaCl is present in the reaction mixture, sulfate ions are stimulatory from 0.1 M to at least 1.1 M. Maximum stimulation occurs in the range from 0.75 M to 1.1 M Na2 SO4.
An even more sensitive assay for ACE activity has been developed using the novel compound ^3 H-benzoylPheAlaPro as substrate. This new substrate can be used to assay ACE in human urine in incubations as short as 15 minutes. The response of this substrate to ions is strikingly different from the response of HipHisLeu. […] This difficulty has been solved by the proper choice of extracting solvent. While a variety of organic solvents may be suitable for the extraction step, it is preferred to employ toluene. Approximately 88% of ^3 H-benzoylPhe enters the toluene phase while only 6% of the unhydrolyzed substrate enters the toluene phase, when toluene and the acidified reaction mixture are in approximately equal volumes at room temperatures.
as §1

[4] = tested on: ACE from rabbit lung; conditions: sodium chloride removed from reaction medium; cited from earlier work

With `CC(C)C[C@H](NC(=O)[C@H](Cc1c[nH]cn1)NC(=O)CNC(=O)c1ccccc1)C(=O)O` [HipHisLeu] (Bz-Gly-His-Leu-OH) the “Reaction Velocity, Per Cent of Substrate Hydrolyzed in 10 minutes” value (from here on “Reaction Velocity, Per Cent”) ([1]; pH 8.0, 0.0M NaCl, Na2 SO4 0 M) was 0 Per Cent, the “Reaction Velocity, Per Cent” value ([1]; pH 8.0, 0.0M NaCl, Na2 SO4 0.1 M) was 0 Per Cent and the “Reaction Velocity, Per Cent” value ([1]; pH 8.0, 0.0M NaCl, Na2 SO4 0.2 M) was 0 Per Cent. For the same molecule, the “Reaction Velocity, Per Cent” value ([1]; pH 8.0, 0.0M NaCl, Na2 SO4 0.3 M) was 0 Per Cent, the “Reaction Velocity, Per Cent” value ([1]; pH 8.0, 0.0M NaCl, Na2 SO4 0.4 M) was 0.1 Per Cent and the “Reaction Velocity, Per Cent” value ([1]; pH 8.0, 0.0M NaCl, Na2 SO4 0.5 M) was 0.1 Per Cent. For the same molecule, the “Reaction Velocity, Per Cent” value ([1]; pH 8.0, 0.0M NaCl, Na2 SO4 0.6 M) was 0.25 Per Cent, the “Reaction Velocity, Per Cent” value ([1]; pH 8.0, 0.0M NaCl, Na2 SO4 0.7 M) was 0.25 Per Cent and the “Reaction Velocity, Per Cent” value ([1]; pH 8.0, 0.0M NaCl, Na2 SO4 0.75 M) was 0.25 Per Cent. For the same molecule, the “Reaction Velocity, Per Cent” value ([1]; pH 8.0, 0.0M NaCl, Na2 SO4 0.8 M) was 0.25 Per Cent, the “Reaction Velocity, Per Cent” value ([1]; pH 8.0, 0.0M NaCl, Na2 SO4 0.9 M) was 0.7 Per Cent and the “Reaction Velocity, Per Cent” value ([1]; pH 8.0, 0.0M NaCl, Na2 SO4 1.2 M) was 3.9 Per Cent. For the same molecule, the “Reaction Velocity, Per Cent” value ([1]; pH 8.0, 0.1M NaCl, Na2 SO4 0 M) was 0.3 Per Cent, the “Reaction Velocity, Per Cent” value ([1]; pH 8.0, 0.1M NaCl, Na2 SO4 0.4 M) was 4.1 Per Cent and the “Reaction Velocity, Per Cent” value ([1]; pH 8.0, 0.1M NaCl, Na2 SO4 0.6 M) was 8.3 Per Cent. For the same molecule, the “Reaction Velocity, Per Cent” value ([1]; pH 8.0, 0.1M NaCl, Na2 SO4 0.75 M) was 12.05 Per Cent, the “Reaction Velocity, Per Cent” value ([1]; pH 8.0, 0.1M NaCl, Na2 SO4 0.9 M) was 12.25 Per Cent and the “pH of maximum activity” value [2] was ~8.0 pH. For the same molecule, the “activity of enzyme (relative to maximum)” value ([2]; range pH 7.0-pH 8.8) was “at least 50%”, the “dependence of hydrolysis on added chloride” value [3] was “can be carried out in the absence of added chloride, if sulfate is present” and the “inhibition on removal of sodium chloride” value [4] was 92%.
